Results taken from PubChem BioAssay AID1259411 (Chemical Carcinogenesis Research Information System (CCRIS), 2018).
Active and inactive are the calls of the source. No rule for the calls is given here.

Tested on: rodent carcinogenicity bioassays, tumor incidence
Experiment: CCRIS carcinogenicity studies
Summary of the method: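 NCI-built, expert-reviewed records of carcinogenicity and related test outcomes (mutagenicity, tumor promotion/inhibition) compiled from published and report sources, historical span 1985-2011, not updated.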

O=c1[nH]cc(N(CCCl)CCCl)c(=O)[nH]1
carcinogen call (Species: MOUSE, Strain/Sex: STRAIN-A/MALE,FEMALE, Route: INTRAPERITONEAL, Dose: 0.18-12 MG/KG IN 12 DOSES OVER 4 WK, Tumor Site: Type of Lesion: LUNG: ADENOMA): active; positive | carcinogen call (Species: MOUSE, Strain/Sex: STRAIN-A/MALE,FEMALE, Route: INTRAPERITONEAL, Dose: 8, 20, 40 MG/KG FOR 7 DOSES OVER 24 WK, Dose: 8, 20, 40 MG/KG FOR 7 DOSES OVER 24 WK, Tumor Site: Type of Lesion: LUNG: ADENOMA): active; positive | carcinogen call (Species: RAT, Strain/Sex: STRAIN-CD/FEMALE, Route: INTRAPERITONEAL, Dose: 0.15, 0.3 MG/KG 3/WK FOR 6 MO, Tumor Site: Type of Lesion: LYMPHATIC SYSTEM: LYMPHOMA, PERITONEAL CAVITY: SARCOMA, MAMMARY GLAND: CARCINOMA, OVARIES: CARCINOMA, Tumor Site: Type of Lesion: LYMPHATIC SYSTEM: LYMPHOMA, PERITONEAL CAVITY: SARCOMA, MAMMARY GLAND: CARCINOMA, OVARIES: CARCINOMA): active; positive | carcinogen call (Species: RAT, Strain/Sex: STRAIN-CD/MALE, Route: INTRAPERITONEAL, Dose: 0.15, 0.3 MG/KG 3/WK FOR 6 MO, Tumor Site: Type of Lesion: LYMPHATIC SYSTEM: LYMPHOMA, PANCREAS, PERITONEAL CAVITY: SARCOMA, Tumor Site: Type of Lesion: LYMPHATIC SYSTEM: LYMPHOMA, PANCREAS, PERITONEAL CAVITY: SARCOMA): active; positive

Nc1ccc(Cc2ccc(N)c(Cl)c2)cc1Cl
carcinogen call (Species: MOUSE, Route: ORAL, Tumor Site: Type of Lesion: BLOOD VESSELS, LIVER): active; positive | carcinogen call (Species: RAT, Route: ORAL, Tumor Site: Type of Lesion: LIVER, LUNG): active; positive | carcinogen call (Species: RAT, Route: SUBCUTANEOUS, Tumor Site: Type of Lesion: LIVER, LUNG): active; positive | carcinogen call (Species: RAT, Strain/Sex: STRAIN-CD/FEMALE, Route: ORAL, Dose: 0, 1000 PPM IN PROTEIN-ADEQUATE (23%) DIET FOR 2 YR (STUDY DURATION: 2 YR), Tumor Site: Type of Lesion: LUNG: ADENOCARCINOMA): active; positive | carcinogen call (Species: RAT, Strain/Sex: STRAIN-CD/FEMALE, Route: ORAL, Dose: 0, 1000 PPM IN PROTEIN-DEFICIENT (7%) DIET FOR 16 MO (STUDY DURATION: 16 MO), Tumor Site: Type of Lesion: LUNG: ADENOCARCINOMA, MAMMARY GLAND: ADENOCARCINOMA): active; positive | carcinogen call (Species: RAT, Strain/Sex: STRAIN-CD/MALE, Route: ORAL, Dose: 0, 1000 PPM IN PROTEIN-ADEQUATE (23%) DIET FOR 2 YR (STUDY DURATION: 2 YR), Tumor Site: Type of Lesion: LUNG: ADENOCARCINOMA): active; positive | carcinogen call (Species: RAT, Strain/Sex: STRAIN-CD/MALE, Route: ORAL, Dose: 0, 1000 PPM IN PROTEIN-DEFICIENT (7%) DIET FOR 16 MO (STUDY DURATION: 16 MO), Tumor Site: Type of Lesion: LUNG: ADENOCARCINOMA, LIVER: HEPATOCELLULAR ADENOMA, HEPATOCELLULAR CARCINOMA): active; positive

Clc1cc2c(c(Cl)c1Cl)Oc1c(Cl)c(Cl)c(Cl)c(Cl)c1O2
carcinogen call (Species: RAT, Strain/Sex: SPRAGUE-DAWLEY/FEMALE (30), Route: ORAL, GAVAGE IN CORN OIL, Dose: 2.5 MG/KG BW PLUS 0.63 MG/KG 0N D 150, TOTAL DOSE 3.1 MG/KG (STUDY DURATION: LIFESPAN), Tumor Site: Type of Lesion: LIVER: CARCINOMA): active; positive | carcinogen call (Species: RAT, Strain/Sex: SPRAGUE-DAWLEY/FEMALE (30), Route: ORAL, GAVAGE IN CORN OIL, Dose: 2.5 MG/KG BW PLUS 0.63 MG/KG ON D 150, TOTAL DOSE 3.1 MG/KG (STUDY DURATION: LIFESPAN), Tumor Site: Type of Lesion: LUNG: CARCINOMA): active; positive | carcinogen call (Species: RAT, Strain/Sex: SPRAGUE-DAWLEY/FEMALE (30), Route: ORAL, GAVAGE IN CORN OIL, Dose: 2.8 MG/KG BW PLUS 0.086 MG/KG EVERY OTHER WK FOR LIFESPAN, TOTAL DOSE 4.6 MG/KG (STUDY DURATION: LIFESPAN), Tumor Site: Type of Lesion: LUNG: CARCINOMA): active; positive | carcinogen call (Species: RAT, Strain/Sex: SPRAGUE-DAWLEY/FEMALE, Route: ORAL, GAVAGE IN CORN OIL, Dose: 0, 1.0, 2.8, 3.1, 3.4, 3.8, 4.1 MG/KG BW ONCE (STUDY DURATION: LIFESPAN), Dose: 0, 1.0, 2.8, 3.1, 3.4, 3.8, 4.1 MG/KG BW ONCE (STUDY DURATION: LIFESPAN), Tumor Site: Type of Lesion: LIVER: CARCINOMA): active; positive at higher doses | carcinogen call (Species: RAT, Strain/Sex: SPRAGUE-DAWLEY/FEMALE, Route: ORAL, GAVAGE IN CORN OIL, Dose: 0, 1.0, 2.8, 3.1, 3.4, 3.8, 4.1 MG/KG BW ONCE (STUDY DURATION: LIFESPAN), Dose: 0, 1.0, 2.8, 3.1, 3.4, 3.8, 4.1 MG/KG BW ONCE (STUDY DURATION: LIFESPAN), Tumor Site: Type of Lesion: LUNG: CARCINOMA): active; positive

COS(=O)(=O)OC
carcinogen call (Species: RAT, Route: INHALATION, Tumor Site: Type of Lesion: NASAL CAVITY, BRAIN): active; positive | carcinogen call (Species: RAT, Route: SUBCUTANEOUS, Tumor Site: Type of Lesion: INJECTION SITE): active; positive

COC(=O)C1=CCCN(C)C1
carcinogen call (Species: MOUSE, Strain/Sex: SWISS/FEMALE, Route: GAVAGE, Dose: 0, 1 MG/D 5 D/WK FOR LIFE (STUDY DURATION: LIFE)): inactive; negative | carcinogen call (Species: MOUSE, Strain/Sex: SWISS/MALE, Route: GAVAGE, Dose: 0, 1 MG/D 5 D/WK FOR LIFE (STUDY DURATION: LIFE), Tumor Site: Type of Lesion: LIVER: HEMANGIOMA, LUNG: ADENOCARCINOMA, STOMACH: SQUAMOUS CELL CARCINOMA, Tumor Site: Type of Lesion: LIVER: HEMANGIOMA, LUNG: ADENOCARCINOMA, STOMACH: SQUAMOUS CELL CARCINOMA): active; positive

O=P([O-])([O-])[O-].O=P([O-])([O-])[O-].[Pb+2].[Pb+2].[Pb+2]
carcinogen call (Species: RAT, Strain/Sex: ALBINO, Route: SUBCUTANEOUS, Dose: 20 MG 1/WK FOR UP TO 16 MO (TOTAL DOSE 40-760 MG/RAT), Tumor Site: Type of Lesion: KIDNEY: ADENOMA, PAPILLOMA, CYSTADENOMA, CARCINOMA): active; positive | carcinogen call (Species: RAT, Strain/Sex: STRAIN-CB/MALE, Route: SUBCUTANEOUS/INTRAPERITONEAL, Dose: TOTAL DOSES 29, 145, 450 MG, Dose: TOTAL DOSES 29, 145, 450 MG, Tumor Site: Type of Lesion: KIDNEY: ADENOMA, ADENOCARCINOMA): active; positive

CC(=O)O
carcinogen call (Species: MOUSE, Strain/Sex: SWISS/FEMALE, Route: ORAL, Dose: 0, 5 PPM IN DRINKING WATER FOR DURATION OF STUDY (STUDY DURATION: LIFE SPAN)): inactive; negative | carcinogen call (Species: MOUSE, Strain/Sex: SWISS/MALE, Route: ORAL, Dose: 0, 5 PPM IN DRINKING WATER FOR DURATION OF STUDY (STUDY DURATION: LIFE SPAN)): inactive; negative

COc1cc2c(c3ccc4ccccc4c13)CCC2
carcinogen call (Species: MOUSE, Strain/Sex: TO/MALE, FEMALE, Route: DERMAL, Dose: 0, 50 UG (10 µL OF A 0.5% W/V TOLUENE SOLUTION) 2/WK FOR 70 WK (STUDY DURATION: 70 WK), Tumor Site: Type of Lesion: SKIN: PAPILLOMA OR CARCINOMA): active; positive

CN1CCN(N=O)CC1
carcinogen call (Species: RAT, Strain/Sex: SPRAGUE-DAWLEY/FEMALE, Route: INHALATION, Dose: 0, 2.4 PPM 14.5 HR/D FOR 74 D OVER 7.5 MONTHS (STUDY DURATION: 350 D), Tumor Site: Type of Lesion: NASAL CAVITY: TUMOR): active; positive

O=NN1CCC(=O)NC1=O
carcinogen call (Species: RAT, Strain/Sex: WISTAR/FEMALE, Route: ORAL, Dose: 0, 450 MG/L CITRATE BUFFER SOLUTION IN DRINKING WATER 5D/WK FOR AN AVERAGE TOTAL DOSE OF 0, 950 MG (STUDY DURATION: 28 W, Dose: 0, 450 MG/L CITRATE BUFFER SOLUTION IN DRINKING WATER 5D/WK FOR AN AVERAGE TOTAL DOSE OF 0, 950 MG (STUDY DURATION: 28 W, Tumor Site: Type of Lesion: LIVER: CARCINOMA): active; positive | carcinogen call (Species: RAT, Strain/Sex: WISTAR/MALE, Route: ORAL, Dose: 0, 450 MG/L CITRATE BUFFER SOLUTION IN DRINKING WATER 5D/WK FOR AN AVERAGE TOTAL DOSE OF 0, 1250 MG (STUDY DURATION: 32, Dose: 0, 450 MG/L CITRATE BUFFER SOLUTION IN DRINKING WATER 5D/WK FOR AN AVERAGE TOTAL DOSE OF 0, 1250 MG (STUDY DURATION: 32, Tumor Site: Type of Lesion: LIVER: CARCINOMA, KIDNEY: ADENOMA): active; positive
